pIC50: −log10 of the molar value.
The compounds below were run on Endogenous Huntingtin Protein (assay: Endogenous Huntingtin Protein Assay (MSD plates, MW1 or MAB2166 capture antibody)). Conditions: Table 1.
Assay type: cell-based
Summary of the method: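 Endogenous huntingtin was captured overnight at 4° C on wells coated with 1 μg/mL MW1 (polyglutamine-specific) or MAB2166. Detection used rabbit #5656S and then goat anti-rabbit SULFO-TAG, both at 0.25 μg/mL and 1 h at room temperature. Plates were imaged on the MSD system in read buffer T.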

CN(c1nc2sc(-c3ncc(-c4cn[nH]c4)cn3)nc2s1)[C@H]1CCCNC1 [Compound 161, N-methyl-N-[(3S)-piperidin-3-yl]-5-[5-(1H-pyrazol-4-yl)pyrimidin-2-yl][1,3]thiazolo[5,4-d][1,3]thiazol-2-amine] and Cn1ncc(-c2ccc(-c3nc4sc(OC5CC(C)(C)NC(C)(C)C5)nc4s3)c(O)c2)c1F [Compound 45, 5-(5-fluoro-1-methyl-1H-pyrazol-4-yl)-2-{5-[(2,2,6,6-tetramethylpiperidin-4-yl)oxy][1,3]thiazolo[5,4-d][1,3]thiazol-2-yl}phenol] cannot be ordered by pIC50: 6.30 to 7.00 for the first, no less than 7.00 for the second.

“N-methyl-N-[(2S,4R)-2-methylpiperidin-4-yl]-5-[4-(1H-pyrazol-4-yl)-1H-pyrrolo[2,3-c]pyridin-7-yl][1,3]thiazolo[5,4-d][1,3]thiazol-2-amine [Compound 71]” and CN(c1nc2sc(-c3cnc(-c4cn[nH]c4)cn3)nc2s1)[C@@H]1C[C@H]2CC[C@@H](C1)N2 [Compound 164, N-[(1R,3s,5S)-8-azabicyclo[3.2.1]octan-3-yl]-N-methyl-5-[5-(1H-pyrazol-4-yl)pyrazin-2-yl][1,3]thiazolo[5,4-d][1,3]thiazol-2-amine] cannot be ordered by pIC50: 6.30 to 7.00 for the first, no less than 7.00 for the second.

CN(c1nc2sc(-c3ncc(-c4cn[nH]c4)c4ccn(C)c34)nc2s1)C1CCNCC1 [Compound 113, N-methyl-5-[1-methyl-4-(1H-pyrazol-4-yl)-1H-pyrrolo[2,3-c]pyridin-7-yl]-N-(piperidin-4-yl)[1,3]thiazolo[5,4-d][1,3]thiazol-2-amine] and CCN1CCC(N(C)c2nc3sc(-c4ccc(-c5cnn(C)c5)cc4O)nc3s2)CC1 [Compound 59, 2-{5-[(1-ethylpiperidin-4-yl)(methyl)amino][1,3]thiazolo[5,4-d][1,3]thiazol-2-yl}-5-(1-methyl-1H-pyrazol-4-yl)phenol] cannot be ordered by pIC50: 6.30 to 7.00 for the first, no less than 7.00 for the second.

First: Cc1[nH]ncc1-c1cnc(-c2nc3sc(N(C)[C@H]4C[C@]5(C)CC[C@](C)(C4)N5)nc3s2)cn1 [Compound 86, N-[(1R,3s,5S)-1,5-dimethyl-8-azabicyclo[3.2.1]octan-3-yl]-N-methyl-5-[5-(5-methyl-1H-pyrazol-4-yl)pyrazin-2-yl][1,3]thiazolo[5,4-d][1,3]thiazol-2-amine]
Second: CC1CC(N(C)c2nc3sc(-c4cnc(-c5cn[nH]c5)nc4)nc3s2)CCN1C (stereo not shown) [Compound 130, N-(1,2-dimethylpiperidin-4-yl)-N-methyl-5-[2-(1H-pyrazol-4-yl)pyrimidin-5-yl][1,3]thiazolo[5,4-d][1,3]thiazol-2-amine]
The pIC50 of the first is higher: no less than 7.00 for the first, 5.52 to 6.00 for the second. The first is the more potent here.

CN(c1nc2sc(-c3cnc(-c4cn[nH]c4)cn3)nc2s1)[C@H]1C[C@]2(C)CC[C@](C)(C1)N2C [Compound 114, N-methyl-5-[5-(1H-pyrazol-4-yl)pyrazin-2-yl]-N-[(1R,3s,5S)-1,5,8-trimethyl-8-azabicyclo[3.2.1]octan-3-yl][1,3]thiazolo[5,4-d][1,3]thiazol-2-amine] and CN(c1nc2sc(-c3ncc(-c4cn[nH]c4)cn3)nc2s1)C1CC(C)(C)NC(C)(C)C1 [Compound 162, N-methyl-5-[5-(1H-pyrazol-4-yl)pyrimidin-2-yl]-N-(2,2,6,6-tetramethylpiperidin-4-yl)[1,3]thiazolo[5,4-d][1,3]thiazol-2-amine] cannot be ordered by pIC50: no less than 7.00 for the first, no less than 7.00 for the second.

C[C@@H]1C[C@@H](N(C)c2nc3sc(-c4ccc(-c5cn[nH]c5)cc4O)nc3s2)C[C@H](C)N1 [Compound 34, 2-(5-{[(2R,4s,6S)-2,6-dimethylpiperidin-4-yl](methyl)amino}[1,3]thiazolo[5,4-d][1,3]thiazol-2-yl)-5-(1H-pyrazol-4-yl)phenol] and C[C@@H]1C[C@@H](Oc2nc3sc(-c4ncc(-c5cn[nH]c5)c5cc[nH]c45)nc3s2)CCN1 [Compound 76, 7-(5-{[(2R,4S)-2-methylpiperidin-4-yl]oxy}[1,3]thiazolo[5,4-d][1,3]thiazol-2-yl)-4-(1H-pyrazol-4-yl)-1H-pyrrolo[2,3-c]pyridine] cannot be ordered by pIC50: no less than 7.00 for the first, no less than 7.00 for the second.

CN(c1nc2sc(-n3cnc(-c4cn[nH]c4)c3)nc2s1)[C@@H]1C[C@H]2CC[C@@H](C1)N2 [Compound 170, N-[(1R,3s,5S)-8-azabicyclo[3.2.1]octan-3-yl]-N-methyl-5-[4-(1H-pyrazol-4-yl)-1H-imidazol-1-yl][1,3]thiazolo[5,4-d][1,3]thiazol-2-amine] and Cc1cnn(-c2cnc(-c3nc4sc(N(C)[C@@H]5C[C@H]6CC[C@@H](C5)N6)nc4s3)c(O)c2)c1 [Compound 190, 2-(5-{[(1R,3s,5S)-8-azabicyclo[3.2.1]octan-3-yl](methyl)amino}[1,3]thiazolo[5,4-d][1,3]thiazol-2-yl)-5-(4-methyl-1H-pyrazol-1-yl)pyridin-3-ol] cannot be ordered by pIC50: 6.30 to 7.00 for the first, no less than 7.00 for the second.

[2H]C([2H])([2H])n1cc(-c2cnc(-c3nc4sc(N(C)C5CC(C)(C)NC(C)(C)C5)nc4s3)c(O)c2)cn1 [Compound 49, 5-[1-(^2H3)methyl-1H-pyrazol-4-yl]-2-{5-[methyl(2,2,6,6-tetramethylpiperidin-4-yl)amino][1,3]thiazolo[5,4-d][1,3]thiazol-2-yl}pyridin-3-ol] and CN(c1nc2sc(-c3ncc(-c4cn[nH]c4)cc3O)nc2s1)C1CCN(C2CC2)CC1 [Compound 204, 2-{5-[(1-cyclopropylpiperidin-4-yl)(methyl)amino][1,3]thiazolo[5,4-d][1,3]thiazol-2-yl}-5-(1H-pyrazol-4-yl)pyridin-3-ol] cannot be ordered by pIC50: no less than 7.00 for the first, 6.30 to 7.00 for the second.

C[C@@H]1C[C@@H](Oc2nc3sc(-c4ccc(-c5cn[nH]c5)c5nc[nH]c45)nc3s2)CCN1 [Compound 68, 7-(5-{[(2R,4S)-2-methylpiperidin-4-yl]oxy}[1,3]thiazolo[5,4-d][1,3]thiazol-2-yl)-4-(1H-pyrazol-4-yl)-1H-benzimidazole] and CC1CC(N(C)c2nc3sc(-c4ccc(-c5cn[nH]c5)c5cc[nH]c45)nc3s2)CCN1C (stereo not shown) [Compound 125, N-(1,2-dimethylpiperidin-4-yl)-N-methyl-5-[4-(1H-pyrazol-4-yl)-1H-indol-7-yl][1,3]thiazolo[5,4-d][1,3]thiazol-2-amine] cannot be ordered by pIC50: no less than 7.00 for the first, no less than 7.00 for the second.

Oc1cc(-c2cn[nH]c2)cnc1-c1nc2sc(N3CCC34CCNCC4)nc2s1 [Compound 189, 2-[5-(1,7-diazaspiro[3.5]nonan-1-yl)[1,3]thiazolo[5,4-d][1,3]thiazol-2-yl]-5-(1H-pyrazol-4-yl)pyridin-3-ol] and CC1CC(N(C)c2nc3sc(-n4ccc(-c5cn[nH]c5)cc4=O)nc3s2)CCN1C (stereo not shown) [Compound 180, 1-{5-[(1,2-dimethylpiperidin-4-yl)(methyl)amino][1,3]thiazolo[5,4-d][1,3]thiazol-2-yl}-4-(1H-pyrazol-4-yl)pyridin-2(1H)-one] cannot be ordered by pIC50: 6.30 to 7.00 for the first, no less than 7.00 for the second.

Cc1cn2cc(-c3nn4cc(C5CCNCC5)nc4s3)cc(F)c2n1 [Compound 30, 8-fluoro-2-methyl-6-[6-(piperidin-4-yl)imidazo[2,1-b][1,3,4]thiadiazol-2-yl]imidazo[1,2-a]pyridine] and CN(c1nc2sc(-c3ncc(-c4cn[nH]c4)cc3O)nc2s1)[C@@H]1CCNC1 [Compound 56, 2-(5-{methyl[(3R)-pyrrolidin-3-yl]amino}[1,3]thiazolo[5,4-d][1,3]thiazol-2-yl)-5-(1H-pyrazol-4-yl)pyridin-3-ol] cannot be ordered by pIC50: 6.30 to 7.00 for the first, no less than 7.00 for the second.

First: CN(c1nc2sc(-n3ccc(-c4cn[nH]c4)cc3=O)nc2s1)[C@@H]1C[C@H]2CC[C@@H](C1)N2C [Compound 178, 1-(5-{methyl[(1R,3s,5S)-8-methyl-8-azabicyclo[3.2.1]octan-3-yl]amino}[1,3]thiazolo[5,4-d][1,3]thiazol-2-yl)-4-(1H-pyrazol-4-yl)pyridin-2(1H)-one]
Second: CN(c1nc2sc(-c3cnc(-n4cccn4)cn3)nc2s1)[C@H]1C[C@]2(C)CC[C@](C)(C1)N2 [Compound 104, N-[(1R,3s,5S)-1,5-dimethyl-8-azabicyclo[3.2.1]octan-3-yl]-N-methyl-5-[5-(1H-pyrazol-1-yl)pyrazin-2-yl][1,3]thiazolo[5,4-d][1,3]thiazol-2-amine]
The pIC50 of the first is higher: no less than 7.00 for the first, 6.00 to 6.30 for the second.

CN(c1nc2sc(-c3ncc(Br)cn3)nc2s1)[C@@H]1C[C@H]2CC[C@@H](C1)N2 [Compound 186, N-[(1R,3s,5S)-8-azabicyclo[3.2.1]octan-3-yl]-5-(5-bromopyrimidin-2-yl)-N-methyl[1,3]thiazolo[5,4-d][1,3]thiazol-2-amine] and C[C@@H]1C[C@@H](Oc2nc3sc(-c4ccc(-c5cn[nH]c5)c5cn[nH]c45)nc3s2)CCN1 [Compound 78, 7-(5-{[(2R,4S)-2-methylpiperidin-4-yl]oxy}[1,3]thiazolo[5,4-d][1,3]thiazol-2-yl)-4-(1H-pyrazol-4-yl)-1H-indazole] cannot be ordered by pIC50: no less than 7.00 for the first, no less than 7.00 for the second.

C[C@@H]1C[C@@H](N(C)c2nc3sc(-c4ncc(-c5cnn(C)c5)c5cc[nH]c45)nc3s2)CCN1 [Compound 91, N-methyl-N-[(2R,4S)-2-methylpiperidin-4-yl]-5-[4-(1-methyl-1H-pyrazol-4-yl)-1H-pyrrolo[2,3-c]pyridin-7-yl][1,3]thiazolo[5,4-d][1,3]thiazol-2-amine] and CC1CC(N(C)c2nc3sc(-c4ncc(Br)c5cc[nH]c45)nc3s2)CCN1C (stereo not shown) [Compound 124, 5-(4-bromo-1H-pyrrolo[2,3-c]pyridin-7-yl)-N-(1,2-dimethylpiperidin-4-yl)-N-methyl[1,3]thiazolo[5,4-d][1,3]thiazol-2-amine] cannot be ordered by pIC50: no less than 7.00 for the first, 6.30 to 7.00 for the second.

CN(c1nc2sc(-c3ncc(-c4cn[nH]c4)n4ccnc34)nc2s1)C1CCNCC1 [Compound 101, N-methyl-N-(piperidin-4-yl)-5-[5-(1H-pyrazol-4-yl)imidazo[1,2-a]pyrazin-8-yl][1,3]thiazolo[5,4-d][1,3]thiazol-2-amine] and Oc1cc(-c2cn[nH]c2)ccc1-c1nc2sc(C3CCNCC3)nc2s1 [Compound 208, 2-[5-(piperidin-4-yl)[1,3]thiazolo[5,4-d][1,3]thiazol-2-yl]-5-(1H-pyrazol-4-yl)phenol] fall in the same range of pIC50: 5.52 to 6.00 for the first, 5.52 to 6.00 for the second.

C[C@@H]1C[C@@H](N(C)c2nc3sc(-c4cnc(-c5cn[nH]c5)cn4)nc3s2)CCN1 [Compound 93, N-methyl-N-[(2R,4S)-2-methylpiperidin-4-yl]-5-[5-(1H-pyrazol-4-yl)pyrazin-2-yl][1,3]thiazolo[5,4-d][1,3]thiazol-2-amine] gave a pIC50 of no less than 7.00.
